Test results as given in US5366983A, “Use of quaternary ammonium compounds to remove salmonella contamination from meat products” (The Board of Trustees of The University of Arkansas, priority 1992, dated 1994).
Several values for one entry are separate records, joined by “and”; a condition that tells them apart may be missing. Equal values may be shown once. Read-outs that look alike come from different tables or passages of the source.

Assays:
[1] = test system: Salmonella typhimurium on chicken skin; assay: Effect of surfactants on Salmonella attached to chicken skin, drumsticks (Tables F1-F4)
[2] = test system: Salmonella typhimurium TA98; assay: Salmonella reversion assay, TA98
Method: Test strains TA98 and TA100 were obtained from Bruce N. Ames (University of California, Berkley, Calif.). Mutagenicities were determined both in the absence of and in the presence of a mammalian liver S9 activating system. S9 is the 9000×g supernatant prepared from liver homogenates from Aroclor 1254 stimulated male Sprague Dawley rats. The S9 was purchased from Molecular Toxicology, Inc. (Anapolis, Md.).
Bacterial broth cultures were grown overnight at 37° with shaking in Oxoid Broth #2. For assays in the absence of S9, a 0.5 ml aliquot of 100 mM Sodium Phosphate Buffer, pH 7.4, was added to sterile 13×100 mm capped culture tubes. For assays in the presence of S9, a 0.5 ml aliquot of 10% S9 mix was added. The S9 mix consisted of 8 mM magnesium chloride, 33 mM potassium chloride, 5 mM glucose-6-phosphate, 4 mM NADP, 100 mM sodium phosphate, pH 7.4 and S9 in a concentration of approximately 1.46 mg protein/ml.
The culture tubes were placed in an ice bath and 0.1 ml of the bacterial suspension and 0.1 ml of a DMSO solution of the test compound were added. The mixture was vortexed gently and incubated at 37° for 20 minutes with shaking in a water bath. Molten top agar (2.0 ml) containing 0.5 mM histidine HCl and 0.5 mM biotin were added, and the mixture was vortexed gently and poured onto a minimal glucose plate. After allowing the agar to solidify, the plates were inverted and placed in a 37° incubator in the dark for 48 hours. The revertant (mutant) colonies were counted and the background lawn was examined on all plates. A response that was two times that of the DMSO solvent control was considered a positive response.

[3] = test system: Salmonella typhimurium TA98; assay: Salmonella reversion assay after heating at 205° C., TA98; format: cell-based; conditions: for Revertants/plate: heated at 205° C.
Method: Test strains TA98 and TA100 were used. Again, mutagenicities were determined both in the absence and in the presence of the mammalian liver S9 activating system.
A response that was two times that of the solvent control was considered a positive response.

[4] = test system: Salmonella attachment to human buccal epithelial cells; conditions: count on treated cell / untreated cell
Method: The Salmonella suspension and the human buccal epithelial cells were prepared according to the method described in the detachment experiments of Example 1, except that only the control buccal epithelial cells were suspended in PBS and washed twice at 4500 rpm for 10 minutes. […] The exposure of the buccal epithelial cells to the Salmonella suspension and all subsequent procedures were performed according to the method described in Example 1.

[5] = test system: Salmonella typhimurium ATCC 14028
Method: Salmonella typhimurium ATCC 14028 was used for these studies and prepared as follows. A 16 hour culture in nutrient broth (BBL) was centrifuged at 15,000 rpm for 10 minutes at 4° C. The deposit was washed once with 0.04 M potassium phosphate buffer (PPB) at pH 7.0 and resuspended in fresh PPB to contain 1-2×10^9 bacteria/ml. Samples (1.0 ml) of this suspension were added into a 1.8 ml Eppendorff vial and centrifuged at 14,000 rpm for 4 minutes. The pellets were first suspended in 1.0 ml of PPB or 1.0 ml of an appropriate concentration of test chemical solution, and then centrifuged and washed with the buffer under the same conditions. After washing, the samples of bacterial suspensions were appropriately diluted in PPB. Duplicate 0.05 ml samples were withdrawn and immediately added onto nutrient agar plates. Colonies were counted after 24 hours incubation at 37° C.

With `CCCCCCCCCCCCCCCC[n+]1ccccc1` [CPC, cetylpyridinium chloride] the “Enrichment, chicken legs out of ten” value ([1]; 0.1%, 4° C.) was 8/10, the “Rinse H2O” value ([1]; 0.1%, 4° C.) was 0 CFU/ml and the “Surfactant Solution” value ([1]; 0.1%, 4° C.) was 0 CFU/ml. The “Swabs, chicken legs producing the notated number of colonies” value (from here on “Swabs … of colonies”) ([1]; 0.1%, 4° C.) was 8/10, the “Swabs, colonies” value ([1]; 0.1%, 4° C.) was “+ (1-10)” and the “Wash H2O, chicken legs producing the notated number of colonies” value (“Wash H2O … of colonies” below) ([1]; 0.1%, 4° C.) was 8/10. For the same compound, the “Wash H2O, colonies” value ([1]; 0.1%, 4° C.) was “+ (1-10)”, the “Enrichment, chicken legs out of ten” value ([1]; 0.1%, 25° C.) was 0/10 and the “Rinse H2O” value ([1]; 0.1%, 25° C.) was 0 CFU/ml. For the same compound, the “Surfactant Solution” value ([1]; 0.1%, 25° C.) was 0 CFU/ml, the “Swabs … of colonies” value ([1]; 0.1%, 25° C.) was 7/10 and the “Swabs, colonies” value ([1]; 0.1%, 25° C.) was “+ (1-10)”. For the same compound, the “Wash H2O … of colonies” value ([1]; 0.1%, 25° C.) was 8/10, the “Wash H2O, colonies” value ([1]; 0.1%, 25° C.) was “++ (11-100)” and the “Enrichment, chicken legs out of ten” value ([1]; 0.5%, 4° C.) was 9/10. The “Rinse H2O” value ([1]; 0.5%, 4° C.) was 0 CFU/ml, the “Surfactant Solution” value ([1]; 0.5%, 4° C.) was 0 CFU/ml and the “Swabs … of colonies” value ([1]; 0.5%, 4° C.) was 9/10. The “Swabs, colonies” value ([1]; 0.5%, 4° C.) was “+ (1-10)”, the “Wash H2O … of colonies” value ([1]; 0.5%, 4° C.) was 7/10 and the “Wash H2O, colonies” value ([1]; 0.5%, 4° C.) was “+ (1-10)”. The “Enrichment, chicken legs out of ten” value ([1]; 1.0%, 4° C.) was 5/10, the “Rinse H2O” value ([1]; 1.0%, 4° C.) was 0 CFU/ml and the “Surfactant Solution” value ([1]; 1.0%, 4° C.) was 0 CFU/ml. For the same compound, the “Swabs … of colonies” value ([1]; 1.0%, 4° C.) was 5/10, the “Swabs, colonies” value ([1]; 1.0%, 4° C.) was “+ (1-10)” and the “Wash H2O … of colonies” value ([1]; 1.0%, 4° C.) was 9/10. For the same compound, the “Wash H2O, colonies” value ([1]; 1.0%, 4° C.) was “+ (1-10)”, the “Enrichment, chicken legs out of ten” value ([1]; .01%, 25° C.) was 10/10 and the “Rinse H2O” value ([1]; .01%, 25° C.) was “+ (1-10)”. For the same compound, the “Surfactant Solution” value ([1]; .01%, 25° C.) was 0 CFU/ml, the “Swabs … of colonies” value ([1]; .01%, 25° C.) was 9/10 and the “Swabs, colonies” value ([1]; .01%, 25° C.) was “++ (11-100)”. For the same compound, the “Wash H2O … of colonies” value ([1]; .01%, 25° C.) was 10/10, the “Wash H2O, colonies” value ([1]; .01%, 25° C.) was “+++ (101-300)” and the “Enrichment, chicken legs out of ten” value ([1]; .05%, 25° C.) was 7/10. For the same compound, the “Rinse H2O” value ([1]; .05%, 25° C.) was 0 CFU/ml, the “Surfactant Solution” value ([1]; .05%, 25° C.) was 0 CFU/ml and the “Swabs … of colonies” value ([1]; .05%, 25° C.) was 9/10. The “Swabs, colonies” value ([1]; .05%, 25° C.) was “+ (1-10)”, the “Wash H2O … of colonies” value ([1]; .05%, 25° C.) was 10/10 and the “Wash H2O, colonies” value ([1]; .05%, 25° C.) was “++ (11-100)”. It also gave a Revertants/plate ([2]; TA98, +S9, 1 μg/plate) of 25 ± 2 Revertants/plate, a Revertants/plate ([2]; TA98, +S9, 5 μg/plate) of 28 ± 1 Revertants/plate and a Revertants/plate ([2]; TA98, +S9, 10 μg/plate) of 25 ± 3 Revertants/plate. It also gave a Revertants/plate ([2]; TA98, +S9, 20 μg/plate) of 28 ± 2 Revertants/plate, a Revertants/plate ([2]; TA98, +S9, 40 μg/plate) of 30 ± 1 Revertants/plate and a Revertants/plate ([2]; TA98, +S9, 50 μg/plate) of 35 ± 6 Revertants/plate. For the same compound, the Revertants/plate ([2]; TA98, -S9, 1 μg/plate) was 24 ± 3 Revertants/plate, the Revertants/plate ([2]; TA98, -S9, 5 μg/plate) was 18 ± 4 Revertants/plate and the “mutagenicity (in words)” value ([2]; TA98, absence of S9, low concentrations) was “nonmutagenic”. For the same compound, the “mutagenicity and cytotoxicity (in words)” value ([2]; TA98, presence of S9) was “neither mutagenic nor cytotoxic”, the Revertants/plate ([3]; TA98, +S9, 0.1 μg/plate) was 26 ± 4 Revertants/plate and the Revertants/plate ([3]; TA98, +S9, 1.0 μg/plate) was 20 ± 1 Revertants/plate. For the same compound, the Revertants/plate ([3]; TA98, +S9, 5.0 μg/plate) was 25 ± 4 Revertants/plate, the Revertants/plate ([3]; TA98, +S9, 10.0 μg/plate) was 22 ± 3 Revertants/plate and the Revertants/plate ([3]; TA98, -S9, 0.1 μg/plate) was 16 ± 3 Revertants/plate. The Revertants/plate ([3]; TA98, -S9, 1.0 μg/plate) was 20 ± 5 Revertants/plate, the Revertants/plate ([3]; TA98, -S9, 5.0 μg/plate) was 22 ± 3 Revertants/plate and the Revertants/plate ([3]; TA98, -S9, 10.0 μg/plate) was 25 ± 3 Revertants/plate. For the same compound, the “mutagenicity after heating in vegetable oil (in words)” value ([3]; TA98, absence or presence of S9, all concentrations tested) was “did not produce substances which are mutagenic”, the Counts/con ([4]; 2.5 mcg/mL) was 62/71 and the Counts/con ([4]; 5 mcg/mL) was 41/71. The Counts/con ([4]; 10 mcg/mL) was 26/70 and 24/74, the Counts/con ([4]; 100 mcg/mL) was 30/70 and 23/74 and the bacterial viability ([5]; CPC 10 ug/ml + 0.0625% Na2-EDTA) was 6.21 ± 0.75 × 10^8 CFU/ml. For the same compound, the bacterial viability ([5]; CPC 10 ug/ml + 0.125% Na2-EDTA) was 6.24 ± 0.79 × 10^8 CFU/ml, the bacterial viability ([5]; CPC 10 ug/ml + 0.5% Na2-EDTA) was 5.79 ± 0.1 × 10^8 CFU/ml and the bacterial viability ([5]; CPC 10 ug/ml, no chelating agent) was 6.08 ± 0.6 × 10^8 CFU/ml. For the same compound, the bacterial viability ([5]; CPC 17 ug/ml + 0.125% Na2-EDTA) was 1.52 ± 0.42 × 10^7 CFU/ml, the bacterial viability ([5]; CPC 17 ug/ml + 0.5% Na2-EDTA) was 4.8 ± 0.42 × 10^6 CFU/ml and the bacterial viability ([5]; CPC 17 ug/ml, no chelating agent) was 7.25 ± 0.1 × 10^7 CFU/ml. For the same compound, the bacterial viability ([5]; CPC 20 ug/ml + 0.25% EGTA) was 3.01 ± 0.44 CFU/ml, the bacterial viability ([5]; CPC 20 ug/ml + 1% EGTA) was 2.64 ± 0.32 CFU/ml and the bacterial viability ([5]; CPC 30 ug/ml + 0.25% EGTA) was 85 ± 65 CFU/ml. For the same compound, the bacterial viability ([5]; CPC 30 ug/ml + 0.25% Na2-EDTA) was 20 ± 13 CFU/ml, the bacterial viability ([5]; CPC 30 ug/ml, no chelating agent) was 117 ± 189 CFU/ml and 82 ± 73 CFU/ml and the bacterial viability ([5]; CPC 40 ug/ml + 1% EGTA) was 0 CFU/ml. The bacterial viability ([5]; CPC 40 ug/ml, no chelating agent) was 8 ± 14 CFU/ml, the “decrease in cell viability” value ([5]; CPC and Na2-EDTA used together) was 2.5 fold and the log reduction at 20 µg/mL ([5]; Salmonella enterica, read-out: decrease in CFU/ml) was 1.5.
